ChEMBL document CHEMBL3217611, “Synthesis, cytotoxicity and hDHFR inhibition studies of 2H-pyrido[1,2-a]pyrimidin-2-ones” (Medchemcomm, 2013)

Legend:
A549 = assay: Cytotoxicity against human A549 cells after 24 hrs by MTT assay; assay type: functional, cell-based; conditions: A549, 24 h
HepG2 = assay: cells; conditions: Homo sapiens, HepG2, 24 h
Description: Cytotoxicity against human HepG2 cells after 24 hrs by MTT assay

SK-N-SH = assay: Cytotoxicity against human SK-N-SH cells after 24 hrs by MTT assay; assay type: functional, cell-based
MCF7 = assay: Cytotoxicity against human MCF7 cells after 24 hrs by MTT assay; assay type: functional, cell-based; conditions: MCF7, 24 h
HeLa = assay: cells; conditions: Homo sapiens, 24 h
Description: Cytotoxicity against human HeLa cells after 24 hrs by MTT assay

Dihydrofolate reductase = target: T1, Dihydrofolate reductase (Homo sapiens, UniProt P00374); assay: Inhibition of human DHFR assessed as depletion of NADPH after 30 secs shaking by spectrophotometry
T1 sequence (P00374 whole entry): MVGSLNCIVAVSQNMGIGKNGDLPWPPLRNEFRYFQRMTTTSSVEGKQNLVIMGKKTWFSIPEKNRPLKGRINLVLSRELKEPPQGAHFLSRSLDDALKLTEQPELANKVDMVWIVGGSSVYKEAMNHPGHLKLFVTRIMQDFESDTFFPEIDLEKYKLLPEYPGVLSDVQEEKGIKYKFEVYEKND

O=c1nc2ccccn2cc1Cc1ccccc1
IC50 (A549): 104 µM
IC50 (HepG2): > 1 mM
IC50 (SK-N-SH): 95.4 µM
IC50 (MCF7): 75.4 µM
IC50 (HeLa): > 1000 µM

O=c1nc2ccc(Cl)cn2cc1Cc1ccc(F)cc1
IC50 (A549): 98.3 µM
IC50 (HepG2): > 1 mM
IC50 (SK-N-SH): 9.86 µM
IC50 (MCF7): 10.4 µM
IC50 (HeLa): > 1000 µM

O=c1nc2ccc(Br)cn2cc1Cc1ccc(Cl)cc1
IC50 (A549): 105 µM
IC50 (HepG2): > 1 mM
IC50 (SK-N-SH): 0.94 µM
IC50 (MCF7): > 1000 µM
IC50 (HeLa): > 1000 µM

O=c1nc2ccc(Br)cn2cc1Cc1ccc(Br)cc1
IC50 (A549): 102 µM
IC50 (HepG2): > 1 mM
IC50 (SK-N-SH): 0.87 µM
IC50 (MCF7): 97.2 µM
IC50 (HeLa): 931 µM

Cc1ccc(Cc2cn3cc(Cl)ccc3nc2=O)cc1
IC50 (A549): > 1000 µM
IC50 (HepG2): > 1 mM
IC50 (SK-N-SH): 0.86 µM
IC50 (MCF7): > 1000 µM
IC50 (HeLa): > 1000 µM

COc1ccc(Cc2cn3cc(Br)ccc3nc2=O)cc1
IC50 (A549): > 1000 µM
IC50 (HepG2): > 1 mM
IC50 (SK-N-SH): 0.94 µM
IC50 (MCF7): > 1000 µM
IC50 (HeLa): 928 µM

O=c1nc2ccc(Cl)cn2cc1Cc1ccc([N+](=O)[O-])cc1
IC50 (A549): > 1000 µM
IC50 (HepG2): > 1 mM
IC50 (SK-N-SH): 0.94 µM
IC50 (MCF7): > 1000 µM
IC50 (HeLa): 928 µM

O=c1nc2ccc(Cl)cn2cc1Cc1ccc(Oc2nc(Cl)c(Cl)cc2Cl)cc1
IC50 (A549): > 1000 µM
IC50 (HepG2): 0.992 mM
IC50 (SK-N-SH): 8.69 µM
IC50 (MCF7): 96.9 µM
IC50 (HeLa): > 1000 µM

O=c1nc2ccc(Br)cn2cc1Cc1cccc(Oc2nc(Cl)c(Cl)cc2Cl)c1
IC50 (Dihydrofolate reductase): 2.73 µM
IC50 (A549): > 1000 µM
IC50 (HepG2): > 1 mM
IC50 (SK-N-SH): 9.24 µM
IC50 (MCF7): 9.77 µM
IC50 (HeLa): > 1000 µM

O=c1nc2ccccn2cc1Cc1ccc(F)cc1C(F)(F)F
IC50 (Dihydrofolate reductase): 3.1 µM
IC50 (A549): > 1000 µM
IC50 (HepG2): 0.804 mM
IC50 (SK-N-SH): 8.69 µM
IC50 (MCF7): 9.87 µM
IC50 (HeLa): 88 µM

O=c1nc2ccccn2cc1Cc1ccc(Br)cc1
IC50 (A549): > 1000 µM
IC50 (HepG2): > 1 mM
IC50 (SK-N-SH): 163 µM
IC50 (MCF7): 157 µM
IC50 (HeLa): > 1000 µM

O=c1nc2ccc(Br)cn2cc1Cc1ccccc1
IC50 (A549): > 1000 µM
IC50 (HepG2): > 1 mM
IC50 (SK-N-SH): 137 µM
IC50 (MCF7): > 1000 µM
IC50 (HeLa): 152 µM

O=c1nc2ccc(Cl)cn2cc1Cc1ccc(F)cc1C(F)(F)F
IC50 (A549): > 1000 µM
IC50 (HepG2): > 1 mM
IC50 (SK-N-SH): 106 µM
IC50 (MCF7): 181 µM
IC50 (HeLa): > 1000 µM

O=c1nc2ccccn2cc1Cc1ccc(F)cc1
IC50 (A549): > 1000 µM
IC50 (HepG2): > 1 mM
IC50 (SK-N-SH): 125 µM
IC50 (MCF7): 200 µM
IC50 (HeLa): 139 µM

Nc1cccn2cc(Cc3ccccc3)c(=O)nc12
IC50 (Dihydrofolate reductase): 8.72 µM
IC50 (A549): 98 µM
IC50 (HepG2): 0.131 mM
IC50 (SK-N-SH): 116 µM
IC50 (MCF7): 105 µM
IC50 (HeLa): 112 µM

Nc1cc(Br)cn2cc(Cc3ccccc3)c(=O)nc12
IC50 (A549): > 1000 µM
IC50 (HepG2): > 1 mM
IC50 (SK-N-SH): 149 µM
IC50 (MCF7): > 1000 µM
IC50 (HeLa): > 1000 µM

Nc1cccn2cc(Cc3ccc(F)cc3)c(=O)nc12
IC50 (A549): > 1000 µM
IC50 (HepG2): > 1 mM
IC50 (SK-N-SH): 126 µM
IC50 (MCF7): 135 µM
IC50 (HeLa): > 1000 µM

Nc1cc(Br)cn2cc(Cc3ccc(F)cc3C(F)(F)F)c(=O)nc12
IC50 (A549): > 1000 µM
IC50 (HepG2): > 1 mM
IC50 (SK-N-SH): 133 µM
IC50 (MCF7): 151 µM
IC50 (HeLa): > 1000 µM

CC1(C)OC2O[C@@H](Cc3cn4ccccc4nc3=O)C(OCc3ccccc3)C2O1 (stereo partly specified)
IC50 (A549): 199 µM
IC50 (HepG2): > 1 mM
IC50 (SK-N-SH): > 1000 µM
IC50 (MCF7): > 1000 µM
IC50 (HeLa): > 1000 µM

CC1(C)OC2O[C@@H](Cc3cn4cc(Cl)ccc4nc3=O)C(OCc3ccccc3)C2O1 (stereo partly specified)
IC50 (A549): 182 µM
IC50 (HepG2): > 1 mM
IC50 (SK-N-SH): > 1000 µM
IC50 (MCF7): > 1000 µM
IC50 (HeLa): > 1000 µM

O=C1N=C2C=CC=CN2CC1C(O)c1cccs1 (stereo unspecified)
IC50 (A549): 248 µM
IC50 (HepG2): > 1 mM
IC50 (SK-N-SH): > 1000 µM
IC50 (MCF7): 166 µM
IC50 (HeLa): 166 µM

O=c1nc2ccccn2cc1Cc1cccc(Oc2ccccc2)c1
IC50 (A549): > 1000 µM
IC50 (HepG2): > 1 mM
IC50 (SK-N-SH): 141 µM
IC50 (MCF7): 243 µM
IC50 (HeLa): > 1000 µM

COc1cccc2c1C(=O)c1c(O)c3c(c(O)c1C2=O)C[C@@](O)(C(=O)CO)C[C@@H]3O[C@H]1C[C@H](N)[C@H](O)[C@H](C)O1 [DOXORUBICIN]
IC50 (A549): 10.6 µM
IC50 (SK-N-SH): 10.9 µM
IC50 (HeLa): 1.12 µM
